In brackets after ≈: the same amount, converted by molar mass. Where two headings read alike, the source gives them in different places.
Experiments:
Assay in all cases: Minimal Inhibitory Concentration (MIC) assay, broth microdilution per CLSI
Format in all cases: cell-based
[1] = test system: Candida albicans; details: Candida albicans, read-out: Minimum Inhibitory Concentrations against Yeast Isolates, Candida albicans
Protocol: (§1) The in vitro activities of the inventive compounds (compound(s) herein) against fungi and/or yeasts were determined with isolates Candida albicans, Candida glabrata and Candida parapsilosis. The comparator compounds included fluconazole, caspofungin and amphotericin B.
(§2) The compounds were supplied as a powder, and were dissolved in dimethylsulfoxide (DMSO) the day of assay. Stock solutions were prepared at 10 mg/mL and diluted to a starting stock concentration of 2.56 mg/mL. Amphotericin B was dissolved in DMSO to a stock concentration of 2.56 mg/mL. Fluconazole was dissolved in deionized water to a stock concentration of 2.56 mg/mL. Caspofungin was received as a stock solution of 3.2 mg/mL in DMSO and was diluted to a starting stock concentration of 2.56 mg/mL.
(§3) The test organisms and reference isolates were streaked for isolation on Sabouraud agar medium (yeasts) or potato dextrose agar (fungi). Colonies were picked by swab from the medium and resuspended in the appropriate broth containing cryoprotectant. The suspensions were aliquoted into cryogenic vials and maintained at −80° C.
(§4) Prior to testing, the yeast isolates were streaked from the frozen vials onto Sabouraud dextrose agar. The plates were incubated overnight at 35° C. The fungal isolate was grown on potato dextrose agar slants and was incubated for 7-10 days at room temperature.
(§5) Both yeast and fungal isolates were tested in RPMI medium buffered with 0.165 M MOPS (3-(N-morpholino)propanesulfonic acid). The pH of the medium was adjusted to 7.0 with 1 N NaOH. The medium was sterile filtered using a 0.2 um PES (polyethersulfone) filter and stored at 4° C. until used.
(§6) The MIC assay method followed the procedure described by the Clinical and Laboratory Standards Institute (CLSI; 1, 2, 3) and employed automated liquid handlers to conduct serial dilutions and liquid transfers. Automated liquid handlers included the Multidrop 384 (Labsystems, Helsinki, Finland), Biomek 2000 and Biomek FX (Beckman Coulter, Fullerton Calif.). The wells in columns 2-12 in standard 96-well microdilution plates (Costar 3795) were filled with 150 ul of 100% DMSO. These would become the ‘mother plates’ from which ‘daughter’ or test plates would be prepared. The compounds (300 uL at 40× the desired top concentration in the test plates) were dispensed into the appropriate well in Column 1 of the mother plates. The Biomek 2000 was used to make serial 1:1 dilutions through Column 11 in the “mother plate”. The wells of Column 12 contained no compounds and were the organism growth control wells.
(§7) The daughter plates were loaded with 185 uL per well of RPMI described above using the Multidrop 384. The daughter plates were prepared using the Biomek FX which transferred 5 μL of the compound solution from each well of a mother plate to the corresponding well of the daughter plate in a single step.
(§8) Standardized inoculum of each organism was prepared per CLSI methods. For yeast isolates, colonies were picked from the streak plate and a suspension was prepared in 0.85% saline. For the fungal isolate, 1 mL of 0.85% saline was dispensed onto the potato dextrose agar slant that had been inoculated 7-10 days previously. Using a swab, a suspension of the fungus was made. After a short time to allow the heavy particles to settle out, a small quantity of the supernatant was dispensed into 0.85% saline and the suspension adjusted to equal a 0.5 McFarland turbidity standard. Both yeast and fungal isolates were diluted 1:100 in RPMI and then transferred to compartments of sterile reservoirs divided by length (Beckman Coulter). The Biomek 2000 was used to inoculate the plates. Daughter plates were placed on the Biomek 2000 work surface reversed so that inoculation took place from low to high compound concentration. The Biomek 2000 delivered 10 μL of standardized inoculum into each well. Thus, the wells of the daughter plates ultimately contained 185 uL of RPMI, 5 uL of the compound solution, and 10 uL of inoculum. […]

[2] = test system: Candida glabrata; details: Nakaseomyces glabratus, read-out: Minimum Inhibitory Concentrations against Yeast Isolates, Candida glabrata
Protocol: as §1, §2, §3, §4, §5, §6, §7, §8

[3] = test system: Candida parapsilosis; details: Lodderomyces parapsilosis, read-out: Minimum Inhibitory Concentrations against Yeast Isolates, Candida parapsilosis
Protocol: as §1, §2, §3, §4, §5, §6, §7, §8

[4] = 24 hr reading (first value of cell 24 hr/48 hr)
[5] = 48 hr reading (second value of cell 24 hr/48 hr)
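Also: two read times 24 hr and 48 hr of incubation.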

MIC [1, 4] [µg/mL]	MIC [1, 5] [µg/mL]	MIC [2, 4] [µg/mL]	MIC [2, 5] [µg/mL]	MIC [3, 4] [µg/mL]	MIC [3, 5] [µg/mL]	SMILES
> 64	> 64	> 64	> 64	> 64	> 64	CN(C)CCCOc1ccc(CCCCc2ccc(CC(=O)NO)cc2)cc1 [Example 17, 2-(4-(4-(4-(3-(dimethylamino)propoxy)phenyl)butyl)phe-nyl)-N-hydroxyacetamide]
> 64	> 64	> 64	> 64	> 64	> 64	O=C(Cc1ccc(CCCCc2ccc(OCCN3CCCC3)cc2)cc1)NO [Example 18, N-hydroxy-2-(4-(4-(4-(2-(pyrrolidin-1-yl)ethoxy)phenyl)butyl)phenyl)acetamide]
32 (≈ 117 µM)	32 (≈ 117 µM)	32 (≈ 117 µM)	32 (≈ 117 µM)	32 (≈ 117 µM)	32 (≈ 117 µM)	O=C(Cc1ccc(CCCCc2ccccc2)o1)NO [Example 62, N-hydroxy-2-(5-(4-phenylbutyl)furan-2-yl)acetamide]
